In assay [1] the test system is NOD2 R877 to alanine mutant. The following applies: R877A versus wild-type NOD2; cited from earlier work.
Assay [2] addresses T1, NOD2 LRR (Homo sapiens, UniProt Q9HC29). The following applies: read-out: Surface KD, NOD2, SPR, previously reported surface KD; cited from earlier work.
In assay [3] the target is T1, NOD2 LRR. In words: SPR assay, NOD2 LRR binding to surface-tethered PG derivatives. The following applies: specificity control (Figure S8).
For assay [4], the target named is T2, NLRP1 LRR (Homo sapiens, UniProt Q9C000).
T2 sequence (Q9C000 791-990): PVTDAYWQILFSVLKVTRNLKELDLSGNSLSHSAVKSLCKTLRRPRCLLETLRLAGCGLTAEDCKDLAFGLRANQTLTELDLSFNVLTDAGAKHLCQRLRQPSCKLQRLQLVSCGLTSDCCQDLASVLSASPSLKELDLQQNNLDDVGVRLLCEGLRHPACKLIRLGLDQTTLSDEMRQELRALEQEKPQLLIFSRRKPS
In words: SPR assay, NLRP1 LRR binding to surface-tethered PG derivatives. The following applies: for Binding to non-PG derived compound tethered to SPR surface: NLRP1, specificity control (Figure S8); for Decrease in affinity compared to intact MDP (1): NLRP1 LRR, SPR surface KD. A general note: In SPR one partner is held on a chip, and binding of the other changes the refractive index at the surface.

Residues, ends and D or L forms follow the SMILES beside them.

T1 sequence (Q9HC29 765-1040 limits assumed): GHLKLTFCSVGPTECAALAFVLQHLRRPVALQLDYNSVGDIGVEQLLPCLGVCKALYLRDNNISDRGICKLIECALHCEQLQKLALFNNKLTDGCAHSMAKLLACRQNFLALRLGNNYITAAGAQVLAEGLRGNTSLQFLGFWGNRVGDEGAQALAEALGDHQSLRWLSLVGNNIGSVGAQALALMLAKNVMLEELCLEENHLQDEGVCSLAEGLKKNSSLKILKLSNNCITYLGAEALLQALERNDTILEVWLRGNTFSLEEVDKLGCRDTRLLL

Regarding `CC(=O)N[C@H]1C(O)O[C@H](CO)[C@@H](O)[C@@H]1O[C@H](C)C(=O)N[C@@H](C)C(=O)N[C@H](CCC(=O)O)C(N)=O` (mixture of isomers) [MDP, muramyl dipeptide], in assay [1], the “Decrease in affinity of NOD2 for MDP on mutation of R877 to alanine” value is given as 4 fold.

What is called Kd is the constant that tells how readily two partners part at equilibrium. 1-amino MDP [Compound 6]: the Kd in assay [2] was 700 ± 100 nM.

Turning to `C[C@H](N)C(=O)N[C@@H](C)C(=O)N[C@@H](C)C(=O)O` [L-alanine tripeptide, reference compound], the “Binding to non-PG derived compound tethered to SPR surface” value in assay [3] and in assay [4] was “did not exhibit binding” in each case.

For `C[C@H](N)C(=O)N[C@H](CCC(=O)O)C(N)=O` [Compound 3, L-ala D-iso dipeptide] (HELM PEPTIDE1{A.[dE].[am]}$$$$V2.0), the Kd in assay [2] was 428 ± 49 nM. The “Decrease in affinity compared to intact MDP (1)” value in assay [4] is listed as 2 fold.

With 6-amino MDP [Compound 1], the dissociation constant Kd in assay [2] is 213 ± 24 nM.

Turning to 6 -amino GlcNAc [Compound 2], the Kd in assay [2] was 354 ± 40 nM. Further, in assay [4], the “Decrease in affinity compared to intact MDP (1)” value is reported as 2 fold.

Take `N[C@H]1C(O)O[C@H](CO)[C@H](O)[C@@H]1O` (some centres unmarked) [galactosamine, reference compound]: the “Binding to non-PG derived compound tethered to SPR surface” value in assay [3] and in assay [4] was “did not exhibit binding” throughout.

The values are drawn from article PMC7601999 (Journal of the American Chemical Society, 2020).
